Experiment [1] has as its target T1, bovine alkaline phosphatase (CIP) (Bos taurus, UniProt P19111).
T1 construct: purchased New England Biolabs
Description: Evaluation of CIP-protective activity under freeze-dried condition. To be noted: for CIP activity after freeze-drying: freeze-dried with 3% additive. Type of experiment: biochemical. On the procedure: Test samples 1 to 12 containing bovine alkaline phosphatase (CIP) were prepared as follows and protein-protective activity of various kinds of added sugar under freeze-dried condition was evaluated.
After bovine alkaline phosphatase (10 units/μL, manufactured by New England Biolabs) was diluted to 1/40 with TBS (manufactured by Takara Bio Inc.), it was subjected to dialysis for 2 hours at 4° C. within TBS of an amount 1,000 times the diluted enzyme solution to remove glycerol. 40 μL of TBS containing 2% trehalose (TRH) was added to and mixed with 40 μL of the enzyme solution after dialysis and the mixture was frozen at −80° C. for 10 minutes. It was then freeze-dried for 20 hours with a freeze dryer (FLEXI-DRY, manufactured by FTS systems INC., Warminster) connected to a vacuum pump (P65D, manufactured by PHIL Sato Vac INC.), preparing freeze-dried product of enzyme with 1% TRH.
Freeze-dried product of enzyme with 3% TRH was prepared in a similar manner to the preparation method of test sample 4 except that the final concentration of trehalose was changed to 3% in the preparation method of test sample 4. […]
Freeze-dried product of enzyme with 3% 4TA was prepared in a similar manner to the preparation method of test sample 5 except that trehalose was changed to 4-trehalosamine (4TA) in the preparation method of test sample 5. […]
Freeze-dried product of enzyme with 3% MLT was prepared in a similar manner to the preparation method of test sample 5 except that trehalose was changed to maltose (MLT) in the preparation method of test sample 5. […]
Freeze-dried product of enzyme with 3% SCR was prepared in a similar manner to the preparation method of test sample 5 except that trehalose was changed to sucrose (SCR) in the preparation method of test sample 5.
Freeze-dried product of enzyme with 3% GOL was prepared in a similar manner to the preparation method of test sample 5 except that trehalose was changed to glycerol (GOL) in the preparation method of test sample 5.
80 μL of water was added to each of the freeze-dried products of test samples 3 to 12 and the mixture was diluted to 1/100 with TBS. Test samples 1 and 2 were diluted to 1/100 with TBS. 10 μL of each of the diluted test samples 1 to 12 and 20 μL of 0.1 M p-nitrophenylphosphate (pNPP)-TBS solution were added to 70 μL of TBS, and enzyme reaction was left to take place at 37° C. for 1 hour. After the reaction, absorbance at 420 nm was measured with a microplate reader (Cytation5, manufactured by Bio Tek Instruments) and CIP activity was measured by the amount of p-nitrophenol as enzyme reaction product (n=3, mean±S.D.).

Another experiment relates to Escherichia coli K-12. The experiment is described as follows: Evaluation of Escherichia coli protective activity in freeze-dried condition. It is filed as cell-based. To be noted: for Numbers of live bacterial cells (relative numbers): Escherichia coli freeze-dried with 6% aqueous solution (final concentration 3%), test sample 3 (FD) = 1. On the procedure: Using test samples 1 to 8 containing Escherichia coli prepared in the following manner, microorganism-protective activity with various kinds of sugar in a freeze-dried condition was evaluated.
Frozen stock of Escherichia coli (Escherichia coli K-12, owned by the Microbial Chemistry Research Foundation) was inoculated in 10 mL of Luria-Bertani (LB) culture medium (manufactured by Difco) and cultured at 37° C. for 24 hours while shaking it at 220 rpm. After culture, it was centrifuged at 3,000×g for 5 minutes, washed once with 10 mL of water, and then suspended in 10 mL of water, thus obtaining Escherichia coli suspension. 50 μL of water was added to and mixed with 50 μL of this Escherichia coli suspension and the mixture was left to stand at 4° C. for 12 hours, preparing control (NF).
After Escherichia coli suspension was prepared in a similar manner to test sample 1, 50 μL of 6% aqueous solution of trehalose was added to and mixed with 50 μL of the Escherichia coli suspension, and the mixture was frozen at −80° C. for 1 hour. It was then freeze-dried for 12 hours with a freeze dryer (FLEXI-DRY, manufactured by FTS systems INC., Warminster) connected to a vacuum pump (P65D, manufactured by PHIL Sato Vac INC.), preparing freeze-dried product (TRH) of Escherichia coli with TRH.
Freeze-dried product (4TA) of Escherichia coli with 4TA was obtained in a similar manner to the preparation method of test sample 4 except that trehalose was changed to 4-trehalosamine (4TA) in the preparation method of test sample 4.
Freeze-dried product (MLT) of Escherichia coli with MLT was obtained in a similar manner to the preparation method of test sample 4 except that trehalose was changed to maltose (MLT) in the preparation method of test sample 4.
Freeze-dried product (SCR) of Escherichia coli with SCR was obtained in a similar manner to the preparation method of test sample 4 except that trehalose was changed to sucrose (SCR) in the preparation method of test sample 4.
Freeze-dried product (GOL) of Escherichia coli with GOL was obtained in a similar manner to the preparation method of test sample 4 except that trehalose was changed to glycerol (GOL) in the preparation method of test sample 4.
For test samples 1 and 2, serial suspensions were made by diluting them to 1/10 with water. 100 μL of water was added to each of the freeze-dried products of test samples 3 to 8 and diluted to 1/10 with water to make their serial suspensions. 80 μL of water was added to 10 μL of each diluted solution.
In a 6-well microplate, 2% Agar-LB was prepared at 3 mL/well, and 90 μL of each diluted solution was inoculated on the 2% Agar-LB and cultured at 37° C. for 24 hours.
Wells in which the number of colonies was measurable were selected and the numbers (relative numbers) of live bacterial cells per well on test samples 1, 2, and 4 to 8 when the number of live bacterial cells per well on test sample 3 (FD) was “1” were calculated in consideration of the dilution concentrations of those test samples.

T1 sequence (P19111 20-506): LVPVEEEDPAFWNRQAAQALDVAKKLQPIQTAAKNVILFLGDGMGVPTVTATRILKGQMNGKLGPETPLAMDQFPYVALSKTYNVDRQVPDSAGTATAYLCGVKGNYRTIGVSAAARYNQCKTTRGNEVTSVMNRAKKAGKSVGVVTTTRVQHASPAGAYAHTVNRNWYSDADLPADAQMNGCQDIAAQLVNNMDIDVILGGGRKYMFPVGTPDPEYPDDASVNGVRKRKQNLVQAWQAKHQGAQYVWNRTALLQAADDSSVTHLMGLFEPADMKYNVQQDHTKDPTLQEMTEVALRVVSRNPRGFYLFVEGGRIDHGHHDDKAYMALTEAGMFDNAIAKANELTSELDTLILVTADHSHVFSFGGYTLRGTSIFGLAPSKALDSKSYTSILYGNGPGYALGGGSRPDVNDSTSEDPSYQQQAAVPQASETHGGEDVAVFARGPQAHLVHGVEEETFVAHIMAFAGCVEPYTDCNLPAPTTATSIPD

Take `OC[C@H]1O[C@H](O[C@H]2[C@H](O)[C@@H](O)C(O)O[C@@H]2CO)[C@H](O)[C@@H](O)[C@@H]1O` (mixture of isomers) [maltose]: in experiment [1], the “CIP activity after freeze-drying” value is reported as “good activity was maintained”. For the same compound, the “Numbers of live bacterial cells (relative numbers)” value (from here on “Numbers … (relative numbers)”) in the experiment on Escherichia coli K-12 is recorded as 10.

For `N[C@H]1[C@H](O)[C@@H](O)[C@@H](O[C@H]2O[C@H](CO)[C@@H](O)[C@H](O)[C@H]2O)O[C@@H]1CO` [4-trehalosamine], the “CIP protection effect compared to other sugars” value in experiment [1] (freeze-dried) is reported as “high compared to the other sugars”. Also, the “CIP activity after freeze-drying” value in experiment [1] is reported as “good activity was maintained”. The “Numbers … (relative numbers)” value with Escherichia coli K-12 is recorded as 100. The “protective effect on microorganisms, comparison” value in the experiment with Escherichia coli K-12 (Escherichia coli, freeze-dried) is “stronger than when the other sugars were added”.

In the case of `OCC(O)CO` [GOL, glycerol], the “CIP activity after freeze-drying” value in experiment [1] is reported as “enzyme activity significantly dropped”. In addition, the “Numbers … (relative numbers)” value in the experiment with Escherichia coli K-12 was determined as 0.

For `OC[C@H]1O[C@@](CO)(O[C@H]2O[C@H](CO)[C@@H](O)[C@H](O)[C@H]2O)[C@@H](O)[C@@H]1O` [sucrose], in experiment [1], the “CIP activity after freeze-drying” value is on record as “good activity was maintained”. Also, the “Numbers … (relative numbers)” value in the experiment on Escherichia coli K-12 turned out to be 100.

Regarding `OC[C@H]1O[C@H](O[C@H]2O[C@H](CO)[C@@H](O)[C@H](O)[C@H]2O)[C@H](O)[C@@H](O)[C@@H]1O` [trehalose, reference compound], in experiment [1], the “CIP activity after freeze-drying” value is “good activity was maintained”. Also, the “Numbers … (relative numbers)” value in the experiment on Escherichia coli K-12 was determined as 10.

The values above are taken from patent US20250002954A1, “Novel Compound, Use Thereof, and Method for Producing Same, and Compound-Containing Composition, Method for Producing 4-Trehalosamine, and Microorganism” (Microbial Chemistry Research Foundation, priority 2021, published 2025).
